Data published in PMC7314547, “Echinoderms provide missing link in the evolution of PrRP/sNPF-type neuropeptide signalling” (eLife, 2020).
pEC50: −log10 of the molar value. “Also recorded” adds a separate entry of the source. Where no end group is shown, it is not given here.

Tests used:
[1] = test system: A. rubens sNPF/PrRP-type receptor Ar-sNPF/PrRPR; assay: Receptor activation: luminescence of CHO-K1 cells expressing Ar-sNPF/PrRPR, Gα16 and apoaequorin-GFP fusion (G5A) (CHO-Ar-sNPF/PrRPR); type: cell-based, Asterias rubens; settings: for luminescence response / receptor activation (in words): at least three independent experiments in triplicate
Procedure: A cDNA encoding Ar-sNPF/PrRPR was cloned and sequenced (Figure 3—figure supplement 1) and its sequence has been deposited in GenBank under accession number MH807444.1. […] The cloned receptor was then co-expressed with Gα16 in CHO-K1 cells expressing apoaequorin to produce the cell system CHO-Ar-sNPF/PrRPR. Synthetic ArPrRP (p[…]-NH2) was tested as a candidate ligand for Ar-sNPF/PrRPR at concentrations ranging from 10^−14 M to 10^−5 M, comparing with cells incubated in assay media without the addition of the peptide. […] Because ArPrRP contains a potential dibasic cleavage site (see underlined arginine residues in its sequence: p[…]-NH2), we hypothesised that the C-terminal pentapeptide of ArPrRP (LNPRFamide) may also be generated from ArPrRPP in vivo. Therefore, we also tested synthetic LNPRFamide as a candidate ligand for Ar-sNPF/PrRPR. […] Therefore, we conclude that the 22-residue amidated peptide ArPrRP is the natural ligand for Ar-sNPF/PrRPR in A. rubens.
Figure 5. A. rubens PrRP-like peptide ArPrRP acts as a ligand for the A. rubens sNPF/PrRP-type receptor Ar-sNPF/PrRPR. (A) The A. rubens PrRP-like peptide ArPrRP (10^−5 M; red bar) triggers luminescence in CHO-K1 cells expressing the A. rubens PrRP/sNPF-type receptor Ar-sNPF/PrRPR, the promiscuous G-protein Gα16 and the calcium-sensitive luminescent GFP-apoaequorin fusion protein G5A. For comparison, the background luminescence of cells that were not exposed to ArPrRP is shown (basal media; grey bar). Mean values (± S.E.M) were determined from three independent experiments performed in triplicate (B). Graph showing the selectivity of ArPrRP as a ligand for Ar-sNPF/PrRPR. […] Ar-sNPF/PrRPR is not activated by a C-terminal pentapeptide fragment of ArPrRP (LNPRFamide) or by the A. rubens luqin-type peptide ArLQ. Each point represents mean values (± S.E.M) from at least three independent experiments done in triplicate. The raw data for the experiments shown in Figure 5 and in Figure 5—figure supplement 2 can be found in Figure 5—source data 1. Figure 5—source data 1. Data for the graphs shown in Figure 5 and Figure 5—figure supplement 2. Figure 5—figure supplement 1. Predicted topology of Ar-sNPF/PrRPR. Seven predicted transmembrane domains are numbered successively in blue and two predicted N-glycosylation sites are shown with green boxes. This figure was generated using Protter (http://wlab.ethz.ch/protter/start/). [drawing 6] Figure 5—figure supplement 2. […] Each point represents mean values (± S.E.M.) from at least three independent experiments, with each experiment performed in triplicate. [drawing 7]
To enable the pharmacological characterisation of a candidate receptor for the A. rubens NPY/NPF/PrRP-like peptide, a cDNA encoding this receptor was cloned into the eukaryotic expression vector pcDNA 3.1(+) (Invitrogen; Cat. No. V790-20). To facilitate expression of the cloned receptor, the forward primer included a partial Kozak consensus sequence (ACC) and a sequence corresponding to the first 15 bases of the open reading frame of contig 1120879 (ACCATGCAGATGACAACC) and the reverse primer consisted of a stop codon and a sequence reverse complementary to the 3’ region of the open reading frame of contig 1120879 ([…]). PCR was performed using the forward primer and reverse primers, A. rubens radial nerve cord cDNA and Q5 polymerase (NEB; Cat. No. M0491S). […] Successful ligation and the direction of the insert was determined by restriction enzyme digestion and sequencing (TubeSeq service; Eurofins Genomics). […]

NPR-11 = settings: ref Chalasani et al., 2010; cited from earlier work
Description: The nematode C. elegans is a powerful model system for functional characterisation of neuropeptide signalling systems ([Frooninckx et al., 2012]). However, NPY/NPF-type signalling has thus far only been partially characterised in this species. […] However, this peptide shares little sequence similarity with NPY/NPF-typ ...

[2] = test system: CHO-K1 cells transfected with an empty pcDNA 3.1(+) vector; assay: Control: luminescence of CHO-K1 (G5A) cells transfected with empty pcDNA 3.1(+) vector; type: cell-based, Cricetulus griseus; settings: cells transfected with vector alone; at least three independent experiments in triplicate
Procedure: A cDNA encoding Ar-sNPF/PrRPR was cloned and sequenced (Figure 3—figure supplement 1) and its sequence has been deposited in GenBank under accession number MH807444.1. […] The cloned receptor was then co-expressed with Gα16 in CHO-K1 cells expressing apoaequorin to produce the cell system CHO-Ar-sNPF/PrRPR. Synthetic ArPrRP (p[…]-NH2) was tested as a candidate ligand for Ar-sNPF/PrRPR at concentrations ranging from 10^−14 M to 10^−5 M, comparing with cells incubated in assay media without the addition of the peptide. […] Because ArPrRP contains a potential dibasic cleavage site (see underlined arginine residues in its sequence: p[…]-NH2), we hypothesised that the C-terminal pentapeptide of ArPrRP (LNPRFamide) may also be generated from ArPrRPP in vivo. Therefore, we also tested synthetic LNPRFamide as a candidate ligand for Ar-sNPF/PrRPR. […]
Figure 5. […] (A) The A. rubens PrRP-like peptide ArPrRP (10^−5 M; red bar) triggers luminescence in CHO-K1 cells expressing the A. rubens PrRP/sNPF-type receptor Ar-sNPF/PrRPR, the promiscuous G-protein Gα16 and the calcium-sensitive luminescent GFP-apoaequorin fusion protein G5A. For comparison, the background luminescence of cells that were not exposed to ArPrRP is shown (basal media; grey bar). Mean values (± S.E.M) were determined from three independent experiments performed in triplicate (B). […]

| pEC50 ([1]; 10^-14 M to 10^-5 M in DMEM/F12, luminescence integrated over 30 s, four-parameter curve, at least three independent transfections in triplicate, read-out: EC50 (half-maximal response concentration)) | Substance | luminescence response / receptor activation (in words) [1] | receptor activation (in words) (NPR-11) | ligand potency (in words) [1] | luminescence response relative to background (basal media) ([1]; 10^-5 M, mean of three independent experiments in triplicate) | luminescence response (in words) [2] |
| --- | --- | --- | --- | --- | --- | --- |
|  | LNPRFamide [C-terminal pentapeptide of ArPrRP] | did not induce luminescence responses; also recorded: not activated |  |  |  |  |
|  | MDANAFRMSF-NH2 |  | only showed activation at peptide concentrations of 10 and 30 µM |  |  |  |
| 9.82 | pQDRSKAMQAERTGQLRRLNPRF-NH2 [ArPrRP, 22-residue amidated starfish PrRP-type neuropeptide, custom synthesised] | induced dose-dependent luminescence; also recorded: causes dose-dependent luminescence |  | potent ligand | approximately five times the background luminescence | no response; also recorded: does not trigger luminescence |
